This note sets out measurements from US20250296942A1, “Phosphonate-Based Coordination Complexes and Methods of Preparation and Use Thereof” (University of Puerto Rico, priority 2021, published 2025).

A short description of data set [1]: AlamarBlue cytotoxicity, RISE and nano-Ca@RISE, hFOB 1.19. The class given is cell-based, human. The settings on record: human, hFOB 1.19 osteoblast cells, hFOB 1.19, read-out: Relative cell viability (% RCL). How it is done:
(§1) Cell culture methods. The MDA-MB-231 cell line was incubated with DMEM, 1% Pen-Strep, and 10% FBS at 37° C. in 5% CO2. The hFOB 1.19 cell line was incubated with 1:1 DMEM:F-12, 0.3 mg/mL G418, and 10% FBS at 34° C. in 5% CO2. Cell passages were performed weekly at 80% of cell confluency, media was exchanged twice a week.
(§2) Cell treatments. Both cell lines were treated with RISE (control) and nano-Ca@RISE (experimental). […]. Both cell lines (MDA-MB-231 and hFOB 1.19) were seeded in 96 well plates at 2.5×10^5 cell/mL. The cells were incubated for 24 h at 37° C. (MDA-MB-231) and 34° C. (hFOB 1.19), respectively. After the initial incubation period, both cell lines were treated with 100 μL of the RISE solutions previously prepared, and incubation was performed for 24, 48, and 72 h at the respective incubation temperatures. For both cell lines, media (MDA-MB-231: DMEM, Pen-Strep) and (hFOB 1.19: DMEM, F-12, G418) were used with control groups. AlamarBlue® assay was utilized to determine cell proliferation, for this, 10% of AlamarBlue® solution in PBS was prepared. Finally, the media was removed from the 96 well plates, 100 μL of 10% AlamarBlue® solution was added, and the cells were incubated for 4 h at the same previously mentioned conditions. After the AlamarBlue® assay, the fluorescence (λexc=560 nm, λem=590 nm) was evaluated employing an Infinite M200 PRO Tecan Microplate Reader. […]. The nonlinear regression method using Graph Pad Prism 8 was applied to fit the dose-response curves (% cell live vs concentration) and determined the IC50 values for RISE.
(§3) […]. Treatments at these concentrations were carried out at 24, 48, and 72 h for RISE and nano-Ca@RISE. The cell seeding and AlamarBlue® assay were completed as described above for the IC50 determination in both cell lines. […]. All experiments were performed in triplicates and the data was statistically treated using mean, standard deviation, and the coefficient of variation percentage (% CV).
(§4) Cell culture methods for the hFOB 1.19 cell line. This cell line was grown in 1:1 mixture of Ham's F12 Medium Dulbecco's Modified Eagle's Medium accompanied with 10% FBS and 0.3 mg/ml of geneticin (G418), incubated at 34° C. in 5% CO2. Cell passage and cell treatment were performed at 80% of cell confluency. The completed growth media was exchanged every two days.
(§5) Cell seeding. The MDA-MB-231 and hFOB 1.19 cell lines were seeded in 96 well plates at a density of 2.5×10^5 cells/mL, incubation was carried out for 24 h at 37° C. for MDA-MB-231 and 34° C. for osteoblast hFOB 1.19, in 5% CO2. The experiments were conducted in triplicates, three 96 well plates were made for each treatment period (24, 48, and 72 h).
(§6) Cell treatment. To determine the half-maximal inhibitory concentration (IC50), for both cell lines, two-fold serial dilutions of RISE (0-200 μM) were prepared. To assess the relative cell live (% RCL) were employed selected […] (50, 45, 40, and 35 μM) of RISE and nano-Ca@RISE for MDA-MB-231 and hFOB 1.19 cell lines. For this, after the seeding, 100 μL of RISE and nano-Ca@RISE were used to treat the cells. The control groups were treated with just media. Both cell lines were incubated for 24, 48, and 72 h after RISE and nano-Ca@RISE solutions were added.
(§7) AlamarBlue@assay. For both cell lines, after the 24, 48, and 72 h of treatment, the media was removed from the 96 well plates. Subsequently, 100 μL of 10% AlamarBlue® solution was added and incubation was carried out for 4 h. The fluorescence (λexc=570 nm, λem=590 nm) was measured employing an Infinite M200 PRO Tecan Microplate Reader. […]. The IC50 curves and the % RCL values were plotted using the Graph Pad Prism 8 program.

Data set [2] concerns normal osteoblast-like hFOB 1.19 cell line. Described as above. The class given is cell-based, human. The following applies: for IC50: Homo sapiens. How it is done:
as §1, §2, §3, §4, §5, §6, §7

SMILES strings stand for the structures.

On to `O=P(O)(O)C(O)(Cc1cccnc1)P(=O)(O)O` [RISE, Monosodium risedronate hemipentahydrate], for which, in data set [1] (35 μM, 24 h), the viability at 24 h, 35 µM worked out at 100 ± 1%. Also, the viability at 48 h, 35 µM in data set [1] (35 μM, 48 h) was 101%. In data set [1] (35 μM, 72 h), the viability at 72 h, 35 µM is 100 ± 2%. In data set [1] (40 μM, 24 h), the viability at 24 h, 40 µM turned out to be 100 ± 1%. The viability at 48 h, 40 µM in data set [1] (40 μM, 48 h) worked out at 100%. For the same molecule, the viability at 72 h, 40 µM in data set [1] (40 μM, 72 h) was 100 ± 1%. Besides, in data set [1] (45 μM, 24 h), the viability at 24 h, 45 µM came out at 100 ± 1%. Moreover, the viability at 48 h, 45 µM in data set [1] (45 μM, 48 h) is 100 ± 1%. In addition, the viability at 72 h, 45 µM in data set [1] (45 μM, 72 h) worked out at 99 ± 2%. Further, the viability at 24 h, 50 µM in data set [1] (50 μM, 24 h) amounted to 99 ± 1%. The viability at 48 h, 50 µM in data set [1] (50 μM, 48 h) came out at 96 ± 4%. The viability at 72 h, 50 µM in data set [1] (50 μM, 72 h) was 98 ± 1%. Also, the IC50 in data set [2] (24 h), in data set [2] (48 h) and in data set [2] (72 h) was more than 200 µM each time. For the same molecule, in data set [2] (hFOB 1.19, 35 and 40 μM, 24, 48, 72 h), the cell death entry is recorded as “no significant cell death”. For the same molecule, in data set [2] (hFOB 1.19, 45 and 50 μM, time not stated), the “% RCL” value was approximately 100%.
